In patent US10736857B2, “Treatment of pervasive developmental disorders with redox-active therapeutics” (PTC Therapeutics, Inc., priority 2008, dated 2020):

System: Human Dermal Fibroblasts from Autistic Patients (ASD fibroblasts)
Assay: Rescue of ASD fibroblasts stressed by addition of L-buthionine-(S,R)-sulfoximine (BSO), Calcein AM viability read-out
Assay type: cell-based
Conditions: Fibroblast, 1 mM final BSO, 48 hours, Calcein AM fluorescence, viability relative to non-BSO treated fibroblasts (100%), tested three times, read-out: EC50, protection against ASD (rescue of BSO-stressed ASD fibroblasts)
Procedure: A screen was performed to identify compounds effective for the amelioration of ASD. Test samples, and solvent controls were tested for their ability to rescue ASD fibroblasts stressed by addition of L-buthionine-(S,R)-sulfoximine (BSO).
MEM (a medium enriched in amino acids and vitamins, catalog no. Gibco 11965) and Fetal Calf Serum were obtained from Invitrogen. Basic fibroblast growth factor and epidermal growth factor were purchased from PeproTech. Penicillin-streptomycin-glutamine mix, L-buthionine (S,R)-sulfoximine, and insulin from bovine pancreas were purchased from Sigma. Calcein AM was purchased from Molecular Probes. Cell culture medium (ATP) was made by combining 75 ml Fetal Calf Serum, 100 U/ml penicillin, 100 μg/ml streptomycin, 2 mM glutamine, 10 ng/ml EGF, and 10 ng/ml bFGF; MEM EBS was added to make the volume up to 500 ml. A 10 mM BSO solution was prepared by dissolving 444 mg BSO in 200 ml of medium with subsequent filter-sterilization. […]
100 μl of PBS containing 1.2 μM Calcein AM were then added to each well. […] After that time the PBS was discarded, the plate gently tapped on a paper towel and fluorescence (excitation/emission wavelengths of 485 nm and 525 nm, respectively) was read on a Gemini fluorescence reader. […]
The viability of non-BSO treated fibroblasts was set as 100%, and the viability of the BSO- and compound-treated cells was calculated as relative to this value.

Compound: CC(C)=CCC/C(C)=C/CC/C(C)=C/CCC(C)(O)CCC1=C(C)C(=O)C(C)=C(C)C1=O (centres unmarked) [2-(3-hydroxy-3,7,11,15-tetramethylhexadeca-6,10,14-trienyl)-3,5,6-trimethylcyclohexa-2,5-diene-1,4-dione]
- EC50: < 150 nM

Compound: CCCCCCCCCC1=C(C)C(=O)C(C)=C(C)C1=O [2,3,5-trimethyl-6-nonylcyclohexa-2,5-diene-1,4-dione]
- EC50: < 150 nM
